This is an account of results in the NIST ThermoML archive (doi:10.1016/j.fluid.2007.01.029).

Structures are written as SMILES. Numbers after ± are expanded uncertainties.

For the series the following is noted: Crystal.
`c1ccccc1` [benzene]: the Normal melting temperature came out at 5.44 ± 0.6 °C.
In the case of `C1CC[C@H]2CCCC[C@H]2C1` [cis-decahydronaphthalene] it was -45.08 ± 0.6 °C; in that of `C1CCCCC1` [cyclohexane], 6.48 ± 0.6 °C; in that of `c1ccc2ccccc2c1` [naphthalene], 79.99 ± 0.6 °C.
For `C1CC[C@H]2CCCC[C@@H]2C1` [trans-decahydronaphthalene], the Normal melting temperature is -30.44 ± 0.6 °C.
